Source: patent US4206235A, “Novel 2,5-dihalophenyl-β-substituted sulfone fungicides” (priority 1976, dated 1980)
Values after ≈ are worked out from the molar mass of the structure shown. Values joined by “and” are separate entries in the source; they are usually repeats but may differ in a detail not shown here. Equal values may be shown once.

Tests used:
[1] = tested on: two-spotted mite; experiment: Activity against the two-spotted mite
[2] = tested on: Sclerotinia rolfsil; experiment: Fungitoxicity in culture media (agar), growth inhibition; format: cell-based; conditions: 50% inhibition of growth, read-out: ED50 (the source's name)
Protocol: (§1) Acetone solutions of the compound were mixed with an aliquot of distilled water and the fine suspension obtained was mixed with cooled but melted agar medium and poured into Petri dishes.
(§2) The tested fungi were grown on the solidified media. Growth of the fungus was measured and percent inhibition was calculated by comparing with the appropriate acetone-water controls. Media were usually Martin's or potato-dextrose agar media.
(§3) ED50 = effective dose, sufficient for the 50% inhibition of growth of the fungus, expressed in p.p.m.

[3] = tested on: Rhizoctonia solani; experiment: as above; format: cell-based; conditions: 50% inhibition of growth, read-out: ED50 (the source's name)
Protocol: as §1, §2, §3

[4] = tested on: Fusarium oxysporum sp. f.lycopersici; experiment: as above; format: cell-based; conditions: 50% inhibition of growth, read-out: ED50 (the source's name)
Protocol: as §1, §2, §3

[5] = tested on: Pythium aphanidermatum; experiment: as above; format: cell-based; conditions: 50% inhibition of growth, read-out: ED50 (the source's name)
Protocol: as §1, §2, §3

[6] = tested on: Rhizoctonia bataticola; experiment: as above; format: cell-based; conditions: Macrophomina phaseolina, 50% inhibition of growth, read-out: ED50 (the source's name)
Protocol: as §1, §2, §3

[7] = tested on: Alternaria tenuis; experiment: Halo test on plasticized PVC sheeting; format: cell-based; set-up: key to growth under the test sample (GUS): +: no reduction in growth; ±: slight reduction in growth; .-+.: moderate reduction in growth; -: complete reduction in growth; conditions: for Zone of growth inhibition (halo): brackets = growth partially suppressed
[8] = tested on: Penicillium funivulosum; experiment: Agar incorporation test; format: cell-based; conditions: 120 h, 5 days at 28° C., P. funiculosum
Protocol: The fungal plates were incubated for 5 days at 28° C. The plates were then assessed for either the presence or absence of growth and the minimum inhibitory concentration (MIC) in ppm recorded.

[9] = tested on: Penicillium funiculosum; experiment: Halo test on plasticized PVC sheeting; format: cell-based; set-up: key to growth under the test sample (GUS): +: no reduction in growth; ±: slight reduction in growth; .-+.: moderate reduction in growth; -: complete reduction in growth
[10] = tested on: Aspergillus flavus; experiment: Halo test on plasticized PVC sheeting; format: cell-based; set-up: key to growth under the test sample (GUS): +: no reduction in growth; ±: slight reduction in growth; .-+.: moderate reduction in growth; -: complete reduction in growth
[11] = tested on: common moulds; experiment: Activity against common moulds on plasticized PVC sheets; format: cell-based
[12] = tested on: Cladosporium cladosporoides; experiment: Halo test on plasticized PVC sheeting; format: cell-based; set-up: key to growth under the test sample (GUS): +: no reduction in growth; ±: slight reduction in growth; .-+.: moderate reduction in growth; -: complete reduction in growth
[13] = tested on: Paecilomyces varioti; experiment: Halo test on plasticized PVC sheeting; format: cell-based; set-up: key to growth under the test sample (GUS): +: no reduction in growth; ±: slight reduction in growth; .-+.: moderate reduction in growth; -: complete reduction in growth
[14] = tested on: mixed spore suspension of Aspergillus flavus, Aspergillus niger, Paecilomyces varioti, Penicillium funiculosum, Trichoderma viride, Alternaria tenuis …; experiment: Weight Loss Test of PVC sheeting; conditions: 14 days at 28° C.; for % weight loss: single strip
[15] = tested on: Trichoderma viride; experiment: Halo test on plasticized PVC sheeting; format: cell-based; set-up: key to growth under the test sample (GUS): +: no reduction in growth; ±: slight reduction in growth; .-+.: moderate reduction in growth; -: complete reduction in growth
[16] = tested on: Aspergillus niger; experiment: Agar incorporation test; format: cell-based; conditions: 120 h, 5 days at 28° C., A. niger
Protocol: (§4) Pure cultures of fungi Paecilomyces varioti, Cladosporium cladosporides, Penicillium funivulosum, and Aspergillus niger were exposed to a range of dilutions of the compound viz: 10,000, 3,000, 1,000, 600, 300, 100, 30, 10, 1 ppm incorporated into agar via […]. The fungal plates were incubated for 5 days at 28° C. The plates were then assessed for either the presence or absence of growth and the minimum inhibitory concentration (MIC) in ppm recorded.

[17] = tested on: Cladosporium cladosporides; experiment: Agar incorporation test; format: cell-based; conditions: 120 h, 5 days at 28° C.
Protocol: as §4

[18] = tested on: Paecilomyces varioti; experiment: Agar incorporation test; format: cell-based; conditions: 120 h, 5 days at 28° C., P. varioti
Protocol: as §4

[19] = tested on: Aspergillus niger; experiment: Halo test on plasticized PVC sheeting; format: cell-based; set-up: key to growth under the test sample (GUS): +: no reduction in growth; ±: slight reduction in growth; .-+.: moderate reduction in growth; -: complete reduction in growth
[20] = tested on: Rhizopus stolonifer; experiment: Fungitoxicity in culture media (agar), growth inhibition; format: cell-based; conditions: 50% inhibition of growth, read-out: ED50 (the source's name)
Protocol: as §1, §2, §3

[21] = 0.5% in PVC sheeting, brackets = growth partially suppressed

O=S(=O)(C=C(Cl)Cl)c1cc(Cl)ccc1Cl [Example 4, 2,5-dichlorophenyl-β, β-dichlorovinyl sulfone]
activity against the two-spotted mite [1]: strong activity | IC50 [2]: 10 µg/mL (≈ 32.7 µM) | IC50 [3]: 5 µg/mL (≈ 16.3 µM) | IC50 [4]: 5 µg/mL (≈ 16.3 µM) | IC50 [5]: 1 µg/mL (≈ 3.27 µM) | IC50 [6]: 5 µg/mL (≈ 16.3 µM)

COC(=O)C(Cl)CS(=O)(=O)c1cc(Cl)ccc1Cl (stereo not drawn) [Example 3, 2,5-dichlorophenyl-β-carboxymethyl-β'-chloroethyl sulfone]
growth under the test sample (GUS) ([7]; 0.5% in PVC sheeting): - | Zone of growth inhibition (halo) ([7]; 0.5% in PVC sheeting): 5 millimetres | growth under the test sample (GUS) ([7]; 1% in PVC sheeting): - | Zone of growth inhibition (halo) ([7]; 1% in PVC sheeting): 10 millimetres | MIC [8]: 30 µg/mL (≈ 90.5 µM) | growth under the test sample (GUS) ([9]; 0.5% in PVC sheeting): - | Zone of growth inhibition (halo) [9, 21]: 4 millimetres | Zone of growth inhibition (halo) ([9]; 1% in PVC sheeting): 8 millimetres | growth under the test sample (GUS) ([9]; 1% in PVC sheeting): - | Zone of growth inhibition (halo) ([10]; 0.5% in PVC sheeting): 1 millimetres | growth under the test sample (GUS) ([10]; 0.5% in PVC sheeting): .-+. | Zone of growth inhibition (halo) ([10]; 1% in PVC sheeting): 1 millimetres | growth under the test sample (GUS) ([10]; 1% in PVC sheeting): .-+. | inhibition of the growth of common moulds on PVC sheets ([11]; 0.5% by weight, PVC plasticized with 30% dialkyl sebacate): Complete inhibition | inhibition of fungi ([11]; 0.5% in sheeting, halo test, seven fungi): all fungi were inhibited | inhibition of fungal attack ([11]; 0.5 and 1.0% in sheeting): virtual complete inhibition of fungal attack | degree of inhibition against the seven fungi ([11]; 1.0% in sheeting, halo test): good | growth under the test sample (GUS) ([12]; 0.5% in PVC sheeting): - | Zone of growth inhibition (halo) [12, 21]: 4 millimetres | Zone of growth inhibition (halo) ([12]; 1% in PVC sheeting): 9 millimetres | growth under the test sample (GUS) ([12]; 1% in PVC sheeting): - | Zone of growth inhibition (halo) ([13]; 0.5% in PVC sheeting): 5 millimetres | growth under the test sample (GUS) ([13]; 0.5% in PVC sheeting): - | Zone of growth inhibition (halo) ([13]; 1% in PVC sheeting): 10 millimetres | growth under the test sample (GUS) ([13]; 1% in PVC sheeting): - | Mean % loss as plasticizer ([14]; 0.5%): 1.8% | Mean % weight loss ([14]; 0.5%): 0.6% | % weight loss ([14]; 0.5%): 0.7% and 0.6% and 0.4% and 0.5% | Mean % loss as plasticizer ([14]; 1.0%): 0.6% | Mean % weight loss ([14]; 1.0%): 0.2% | % weight loss ([14]; 1.0%): 0.4% and 0.1% and 0.01% and 0.2% | Zone of growth inhibition (halo) ([15]; 0.5% in PVC sheeting): 2 millimetres | growth under the test sample (GUS) ([15]; 0.5% in PVC sheeting): .-+. | Zone of growth inhibition (halo) ([15]; 1% in PVC sheeting): 5 millimetres | growth under the test sample (GUS) ([15]; 1% in PVC sheeting): .-+. | MIC [16]: 100 µg/mL (≈ 302 µM) | MIC [17]: 100 µg/mL (≈ 302 µM) | MIC [18]: 100 µg/mL (≈ 302 µM) | growth under the test sample (GUS) ([19]; 0.5% in PVC sheeting): - | Zone of growth inhibition (halo) [19, 21]: 2 millimetres | Zone of growth inhibition (halo) ([19]; 1% in PVC sheeting): 6 millimetres | growth under the test sample (GUS) ([19]; 1% in PVC sheeting): - | IC50 [2]: 50 µg/mL (≈ 151 µM) | IC50 [20]: > 50 µg/mL | IC50 [3]: 20 µg/mL (≈ 60.3 µM) | IC50 [4]: > 50 µg/mL | IC50 [5]: > 50 µg/mL | IC50 [6]: 50 µg/mL (≈ 151 µM)
